Experimental data reported in US20090117089A1, “GLYCOLIPIDS AND ANALOGUES THEREOF AS ANTIGENS FOR NK T CELLS” (The Rockefeller University, priority 2005, published 2009).
“Also recorded” adds a separate entry of the source.

Columns and labels:
[1] = test system: serum IFN-γ, IL-12p70 and other cytokines; assay: Serum cytokines (Luminex); type: in vivo, mouse; conditions: for serum IFNγ: 15 hours; for serum IFN-γ, IL-12p70, IL-4, TNF-α and IL-2 response: 2, 6, 12 and 24 h; for serum IFN-γ and IL12p70 release in Jα281−/− mice: i.v. injection
Procedure: Serum cytokines. […] 25 μl of sample was preincubated with serum diluent and incubated for 2 h with Beadmates coated with anti-cytokine mAbs. The fluid was then aspirated and the wells incubated for 1.5 h with biotin-conjugated anti-cytokine mAbs followed by 30 min incubation with Beadlyte streptavidin-PE secondary antibody. Samples were acquired in duplicate by Luminex and analyzed using Beadview software (Upstate).

[2] = target: T1, human CD1d dimers / invariant T cell receptor of human NKT cells (Homo sapiens, UniProt P15813); assay: In vitro CD1d-dimer assay using a human NKT cell line; type: binding; conditions: dimers loaded with 40 μM glycolipid
T1 construct: soluble divalent human CD1d-IgG1 fusion protein; IgG1 (immunoglobulin fusion partner that makes the protein divalent); purchased BD Pharmingen / BD Biosciences (DimerX)
Procedure: One mg of soluble divalent human CD1d-IgG1 fusion protein (human CD1d-IgG1 dimers, BD Pharmingen) were incubated overnight with […] of each glycolipid at 32° C. and at neutral pH according to the manufacturer's protocol. The glycolipid-loaded CD1d-IgG1 dimers were incubated with human NKT cells at 4° C. for 60 minutes, followed by incubation with PE-coupled anti-mouse IgG1 mAb (A85-1). The cells were also surface stained with a PerCP-coupled anti-CD3 mAb (BD Pharmingen, San Diego, Calif.).
CD1d-dimer binding assay. CD1d dimer (DimerX, BD Biosciences) was incubated overnight with 40 μM of each glycolipid at 32° C. and at neutral pH according to the manufacturer's protocol. The loaded CD1d dimers were incubated with a human NKT cell line at 4° C. for 60 min, followed by incubation with APC-conjugated secondary antibody. The cells were also co-stained with mAbs against the invariant NKT cell receptor (Vα24/Vβ11). At least 2×10^5 lymphocyte-gated events were acquired to allow reliable estimation of NKT cells.

[3] = test system: human NKT cells (Vα24/Vβ11); assay: Human dendritic cell mediated NKT cell expansion; type: cell-based; set-up: NKT cell expansion (Table 1): unit not given here; conditions: for NKT cell expansion by loaded human DCs: DC to responder ratio 1:10
Source text: Human dendritic cell mediated NKT cell expansion. CD14+ monocytes were isolated from PBMC using anti-CD14 magnetic microbeads and cultured in the presence of GM-CSF and IL-4 to generate DCs, followed at day 5-6, by maturation in an inflammatory cytokine cocktail as described herein. To stimulate NKT cells, DCs were pulsed with α-GalCer and the tested analogs, and cultured with CD14− cells at a DC: responder ratio of 1:10. NKT cell expansion was monitored by flow cytometry based on the expression of the invariant NKT cell receptor (Vα24/Vβ11).

[4] = test system: Vα24i human NKT cell line; assay: In vitro cytokine secretion assay using human NKT cell lines; type: cell-based; conditions: CD14+ immature dendritic cells; 10 μg/ml glycolipid (1-10 μg/ml for 3-O-sulfo-α-galactosylceramide); 10 IU/ml IL-2
Procedure: (§1) Human NKT cell lines, expressing the Vα24i T cell receptor as well as CD161, were generated as follows: Anti-CD161 monoclonal antibodies, and anti-CD14 monoclonal antibodies, each coupled to magnetic beads (Miltenyi biotec, Auburn, Calif.), were used sequentially to isolate CD161^+ cells and CD14^+ cells from leukopaks. Immature dendritic cells were generated from the CD14^+ cells after a two-day incubation in the presence of 300 U/ml GM-CSF (R&D systems, Minneapolis, Minn.) and 100 U/ml IL-4 (R&D systems, Minneapolis, Minn.). Following irradiation with 2000 rads, the immature dendritic cells were co-cultured with syngeneic CD161^+ cells in the presence of 100 ng/ml of alpha-galactosylceramide and 10 IU/ml of IL-2 (Invitrogen, Carlsbad Calif.) for 10 to 14 days. After stimulating the CD161^+ cells a second time with alpha-galactosylceramide-pulsed, irradiated immature dendritic cells, NKT cell lines were shown by flow cytometry to express both CD161^+ and V 24i TCR (99% purity).
(§2) IFN-γ and IL-4 secretion by the Vα 24i human NKT cell line was determined by ELISA (BD Pharmingen, San Diego, Calif.) after culture for 16 hours. For these assays, 1×10^5 Vα 24i human NKT cells were co-cultured with 4×10^5 irradiated, immature CD14^+ dendritic cells, in the presence of the glycolipid compounds at 10 μg/ml in a 96-well flat-bottom plate.
as §1, with “of 100-0.1” for “of 100”
In some cases, Hela cells were transfected with a human CD1d construct [Xing et al. 2005. Bioorg Med Chem 13: 2907], and were used to present the glycolipids, via pulsing with the respective compounds at the indicated concentration, to NKT lines.
as §2, with “IFN-γ” for “IFN-γ and IL-4”

Compound	serum IL-12p70 ([1]; 0.02 μg, 15 h) [pg/mL]	serum IFNγ ([1]; 0.02 μg) [pg/mL]	serum IFN-γ, IL-12p70, IL-4, TNF-α and IL-2 response ([1]; 2 μg i.v.)	serum IL-12p70 ([1]; 2 μg i.v., by 6 h) [pg/mL]	serum IFN-γ ([1]; 2 μg i.v., by 12 h) [pg/mL]	serum IL-12p70 ([1]; 2 μg i.v., by 12 h) [pg/mL]	serum IFN-γ and IL-12p70, 24 vs. αGalCer ([1]; all doses tested, 15 hours after i.v. injection)	serum IFN-γ and IL12p70 release in Jα281−/− mice [1]	binding of loaded CD1d dimers to Vα24/Vβ11 invariant TCR expressing NKT cells [2]	NKT cell expansion by loaded human DCs [3]	NKT cell expansion (Table 1) ([3]; Donor 1)	NKT cell expansion (Table 1) ([3]; Donor 2)	NKT cell expansion (Table 1) ([3]; Donor 3)	NKT cell expansion (Table 1) ([3]; Donor 4)	serum IFN-γ ([1]; 2 μg i.v., by 6 h) [pg/mL]	IFN-γ secretion [4]	IL-4 secretion [4]
3-O-sulfo-alpha-galactosylceramide [Compound 24]	~900	~1200	significantly higher at all time points examined	~1000	~3000	~900	at least 2.5 fold	lacked the ability to release IFN-γ and IL12p70 into the serum	to a lesser extent than α-GalCer	efficiently expanded human NKT cells; also recorded: comparable or higher than expansion mediated by DCs loaded with αGalCer	3.19	5.95	1.51	4.95			
CCCCCCCCCCCCCCCCCCCCCCCCCC(=O)N[C@@H](CO[C@H]1O[C@H](CO)[C@H](O)[C@H](O)[C@H]1O)[C@H](O)[C@H](O)CCCCCCCCCCCCCC [α-GalCer, 2S,3S,4R-1-O(α-galactopyranosyl)-2(N-hexacosanoylamino)-1,3,4-octadecanetriol]	~50	~100	induced rapid increases in serum IFN-γ, IL-12p70, IL-4, TNF-α and IL-2 concentrations	~600	~1200	~200		lacked the ability to release IFN-γ and IL12p70 into the serum		efficient inducers of NKT cell expansion in culture	3.55	2.65	1.53	3.55	6000	greater IFN-γ and IL-4 secretion	greater IFN-γ and IL-4 secretion
